pIC50: −log10 of the molar value.
Tests used:
Wee-1 kinase = Wee-1 kinase (Homo sapiens (Human), UniProt P30291); assay: Measurement of Wee-1 kinase activity (ADP-Glo); assay type: biochemical; details: read-out: Wee-1 IC50 activity
Method: Method 1: Measurement of Wee-1 kinase activity
In the measurement of Wee-1 activity, a commercial peptide Poly(Lys Tyr(4:1)) hydrobromide was purchased from Sigma Aldrich and used as the substrate. Activated Wee-1 kinase was purchased from Invitrogen (PV3817) and an ADP-Glo luminescent kit was purchased from Promega.
All reactions took place in […] volumes in reaction buffer containing 40 mM Tris-HCl and 20 mM magnesium chloride, supplemented with 0.1 mg/mL bovine serum albumin and 2 mM DTT. Compounds were serially diluted in buffer and 5 μL of each concentration pipetted into a white 384 well plate (Sigma Aldrich M6186). A 5 μL aliquot of the Wee-1 enzyme was added to each well and the plate centrifuged for 1 min to ensure mixing of the enzyme and inhibitor.
The plate was incubated at room temperature for 30 minutes before the addition of 2.0 μg/mL of substrate and 30 μM ATP in a 5 μL aliquot. The plate was centrifuged for one minute and incubated for 1 h at RT.
15 μL of ADP-Glo stop reagent was added to each well to quench the reaction and deplete unconverted ATP. The plate was incubated for a further 40 min in the dark at RT.
30 μL of ADP-Glo kinase detection reagent was added to each well, converting ADP to ATP, catalysing the generation of luciferin by luciferase. The plate was shaken for 1 min, and incubated in the dark for an additional hour.
Luminescence from each well was detected using the Biotek Synergy4 HD plate reader and the percentage inhibition of kinase activity calculated for each inhibitor tested. Positive (kinase only) and negative (no kinase) controls were added to each plate to ensure specific interaction of kinase and inhibitor. The IC50 concentration for each inhibitor was calculated by plotting the percentage kinase inhibition against concentration of inhibitor and the curve generated by non-linear regression fitting.

[1] = CLint estimates using human liver microsomes; assay type: in vitro ADME; details: pH 7.4, read-out: HLM activity (HLM CLint)
Method: Method for the Determination of CLint Estimates Using Human Liver Microsomes
Test compounds (final concentration=1 μM; final DMSO concentration=0.1%) were incubated in 0.1M phosphate buffer pH 7.4 with human liver microsomes (0.5 mg of protein/mL) at 37° C. Reactions were started by addition of NADPH in 0.1M phosphate buffer pH 7.4 (final concentration 1 mM). 40 μL aliquots were removed at 2, 5, 10, 15, 20, 30, 40 and 50 min. Reactions were quenched in 80 μL of ice-cold methanol. Samples were subsequently frozen overnight then centrifuged at 3500 rpm for 20 min at 4° C. The supernatants were removed and transferred into analytical plates and analysed by LC/MS/MS.
All samples were analysed on a Waters Acquity I-Class coupled to a Waters Xevo TQD mass spectrometer. A Waters BEH C18 2.1×50 mm 1.7 μm column was used and mobile phases were water and methanol containing 0.1% formic acid as modifier. Analysis was by multiple reaction monitoring and conditions were optimised for each test compound.
From a plot of ln peak area against time, the gradient of the line is determined. Subsequently, half-life and intrinsic clearance are calculated using the following equations.

[2] = system: phospho-cdc2 (Tyr15) in HT-29 cells; assay: Effect on phosphorylation of cdc2 at Tyr15 in HT-29 cells (PathScan ELISA); assay type: cell-based; details: Homo sapiens, HT-29, 8 h; HT29 cells, eight hours incubation; read-out: HT29 pCDC2 activity
Method: Method 2: Determining the effect of compounds on the phosphorylation of cdc2 at Tyr15
The colorectal cancer cell lines HT-29 and HCT-116 were purchased from the ATCC and routinely maintained in McCoy's Medium (Invitrogen) supplemented with 10% Foetal Calf Serum.
The cells were trypsinised from their growing vessel and counted, 100 μL of cell suspension containing 6000 cells was pipetted into black 96 well Co-star plates and incubated overnight to allow adherence to the surface at a temperature of 37° C. and an atmosphere of 5% CO2. Test compounds were formulated in DMSO and diluted in foetal calf serum supplemented medium. Incubating medium was removed by aspiration and diluted drug supplemented medium added to each well.
The plate was returned to the incubator for an additional eight hours at 37° C. and an atmosphere of 5% CO2. Post incubation, the drug supplemented medium was aspirated from each well and the cells were washed once in ice-cold phosphate buffered saline (PBS). 100 μL of cell lysis buffer (Cell Signalling Technologies #9803) containing 20 mM Tris, 150 mM NaCl, 1 mM EDTA, 1 mM EGTA, 1% Triton-X100, 2.5 mM sodium pyrophosphate, 1 mM glycerophosphate, 1 mM Na3VO4 and 1 μg/mL leupeptin was added to each well of the 96 well plate and incubated at 4° C. for 30 min. The samples on the plate were snap frozen at −80° C. until required.
Immediately before the continuation of the assay, the sample plate was thawed and centrifuged at 4° C. for 10 min and the supernatant transferred to secondary tubes or 96 well plate.
Cell supernatant was mixed in a ratio of 1:1 with sample dilutent buffer and vortexed for one minute. 100 μL of diluted sample was pipetted into pre-coated plates containing a rabbit polyclonal antibody for phospho-cdc2 (Tyr15) (Cell Signalling Technologies PathScan kit #7176). The plate was sealed and incubated overnight at 4° C.
The plate seal was removed and the well contents aspirated, followed by 3×5 min washes with 200 μL of diluted wash buffer. Between each wash the plate was tapped firmly onto blotting paper to ensure the removal of all kit solution. 100 μL of kit detection antibody was added to each well and the plate re-sealed and incubated at 37° C. for 1 h. Post incubation the plate was washed and processed in a similar manner to that previously described.
100 μL of horseradish peroxidise-linked secondary antibody was added to each test well, the plate sealed and incubated for thirty minutes at 37° C. Post incubation, the plate was washed as previously stated, followed by the addition of 100 μL of 3,3′,5,5′ tetramethylbenzidine (TMB reagent). The plate was sealed and incubated at RT for 30 min.
100 μL of stop solution was added to each well and the underside of the plate wiped with a lint-free tissue, prior to spectrophotometric determination. Absorbance from each well was read at 450 nm within 30 min of the addition of the stop solution.
The percentage of phospho-cdc2 was calculated compared to DMSO control and plotted versus the concentration of inhibitor using GraphPad Prism. Data was fitted using non-linear regression analysis and IC50 values generated.

Sequence of Wee-1 kinase (P30291 whole entry): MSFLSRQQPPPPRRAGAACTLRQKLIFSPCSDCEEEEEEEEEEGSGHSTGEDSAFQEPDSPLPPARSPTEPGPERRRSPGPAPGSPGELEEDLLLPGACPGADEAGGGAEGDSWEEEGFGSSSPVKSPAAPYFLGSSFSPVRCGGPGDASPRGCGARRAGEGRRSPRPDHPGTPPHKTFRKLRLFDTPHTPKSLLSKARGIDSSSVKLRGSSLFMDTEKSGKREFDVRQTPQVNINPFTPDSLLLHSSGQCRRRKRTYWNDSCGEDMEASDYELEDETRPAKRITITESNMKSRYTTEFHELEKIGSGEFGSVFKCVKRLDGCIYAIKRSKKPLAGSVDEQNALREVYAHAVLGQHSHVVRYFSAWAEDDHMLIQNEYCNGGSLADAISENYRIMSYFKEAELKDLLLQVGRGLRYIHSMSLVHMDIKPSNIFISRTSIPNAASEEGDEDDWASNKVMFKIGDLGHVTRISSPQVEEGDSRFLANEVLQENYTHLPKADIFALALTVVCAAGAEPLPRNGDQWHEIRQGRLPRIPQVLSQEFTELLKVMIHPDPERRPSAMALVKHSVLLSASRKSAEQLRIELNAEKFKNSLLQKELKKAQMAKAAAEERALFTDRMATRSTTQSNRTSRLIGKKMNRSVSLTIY

| SMILES | pIC50 (Wee-1 kinase) | microsomal CLint at 1 μM [1] [µL/min/mg] | pIC50 [2] |
| --- | --- | --- | --- |
| O=c1c2cnc(Nc3ccc(N4CCNCC4)cc3)nc2ccn1-c1cccnc1Cl [Example 3, 6-(2-Chloropyridin-3-yl)-2-((4-(piperazin-1-yl)phenyl)amino)pyrido[4,3-d]pyrimidin-5(6H)-one] | < 6.70 | ≤ 20 |  |
| CC(=O)N1CCN(c2ccc(Nc3ncc4c(=O)n(-c5c(Cl)cccc5Cl)ccc4n3)cc2)CC1 [Example 5, 2-((4-(4-Acetylpiperazin-1-yl)phenyl)amino)-6-(2,6-dichlorophenyl)pyrido[4,3-d]pyrimidin-5(6H)-one] | 6.70 to 8.00 | ≤ 20 | 6.00 to 7.00 |
| NCc1cccc(Nc2ncc3c(=O)n(-c4c(Cl)cccc4Cl)ccc3n2)c1 [Example 25, 2-((3-(Aminomethyl)phenyl)amino)-6-(2,6-dichlorophenyl)pyrido[4,3-d]pyrimidin-5(6H)-one] |  | > 20 | ≤ 6.00 |
| CN1CCN(c2cccc(Nc3ncc4c(=O)n(-c5c(Cl)cccc5Cl)ccc4n3)c2)CC1 [Example 26, 6-(2,6-Dichlorophenyl)-2-((3-(4-methylpiperazin-1-yl)phenyl)amino)pyrido[4,3-d]pyrimidin-5(6H)-one] |  | > 20 | ≤ 6.00 |
| CC(=O)Nc1cn(-c2c(Cl)cccc2Cl)c(=O)c2cnc(Nc3ccc(N4CCNCC4)cc3)nc12 [Example 28, N-(6-(2,6-Dichlorophenyl)-5-oxo-2-((4-(piperazin-1-yl)phenyl)amino)-5,6-dihydropyrido[4,3-d]pyrimidin-8-yl)acetamide] | < 6.70 |  |  |

Continued, values first:

| pIC50 (Wee-1 kinase) | microsomal CLint at 1 μM [1] [µL/min/mg] | pIC50 [2] | SMILES |
| --- | --- | --- | --- |
|  | > 20 | 6.00 to 7.00 | CCN(CC)CCOc1ccc(Nc2ncc3c(=O)n(-c4c(Cl)cccc4Cl)ccc3n2)cc1 [Example 4, 6-(2,6-Dichlorophenyl)-2-((4-(2-(diethylamino)ethoxy)phenyl)amino)pyrido[4,3-d]pyrimidin-5(6H)-one] |
|  | > 20 | 6.00 to 7.00 | O=c1c2cnc(Nc3ccc(N4CCS(=O)(=O)CC4)cc3)nc2ccn1-c1c(Cl)cccc1Cl [Example 6, 6-(2,6-Dichlorophenyl)-2-((4-(1,1-dioxidothiomorpholino)phenyl)amino)pyrido[4,3-d]pyrimidin-5(6H)-one] |
| > 8.00 | ≤ 20 | 6.00 to 7.00 | O=c1c2cnc(Nc3ccc(N4CCNCC4)cc3)nc2c(Br)cn1-c1c(Cl)cccc1Cl [Example 9, 8-Bromo-6-(2,6-dichlorophenyl)-2-((4-(piperazin-1-yl)phenyl)amino)pyrido[4,3-d]pyrimidin-5(6H)-one] |
| > 8.00 | ≤ 20 | ≥ 7.00 | Cc1cc(Nc2ncc3c(=O)n(-c4c(Cl)cccc4Cl)cc(C#CCO)c3n2)ccc1N1CCNCC1 [Example 14, 6-(2,6-Dichlorophenyl)-8-(3-hydroxyprop-1-yn-1-yl)-2-((3-methyl-4-(piperazin-1-yl)phenyl)amino)pyrido[4,3-d]pyrimidin-5(6H)-one] |
|  | > 20 | 6.00 to 7.00 | CN1CCN(c2ccc(Nc3ncc4c(=O)n(-c5c(Cl)cccc5Cl)ccc4n3)cc2)CC1 [Example 15, 6-(2,6-Dichlorophenyl)-2-((4-(4-methylpiperazin-1-yl)phenyl)amino)pyrido[4,3-d]pyrimidin-5(6H)-one] |
|  | > 20 | 6.00 to 7.00 | CN1CCN(c2ccc(Nc3ncc4c(=O)n(-c5c(Cl)cccc5Cl)ccc4n3)cn2)CC1 [Example 31, 6-(2,6-Dichlorophenyl)-2-((6-(4-methylpiperazin-1-yl)pyridin-3-yl)amino)pyrido[4,3-d]pyrimidin-5(6H)-one] |
| 6.70 to 8.00 |  | 6.00 to 7.00 | CN1CCN(C(=O)c2ccc(Nc3ncc4c(=O)n(-c5c(Cl)cccc5Cl)ccc4n3)cc2)CC1 [Example 32, 6-(2,6-Dichlorophenyl)-2-((4-(4-methylpiperazine-1-carbonyl)phenyl)amino)pyrido[4,3-d]pyrimidin-5(6H)-one] |

Reference: patent US9714244B2, “Substituted pyrido[4,3-d]pyrimidines as Wee-1 inhibitors” (ALMAC DISCOVERY LIMITED, priority 2013, dated 2017)
